For 25 compounds, IC50 results are on record in patent publication US7816353B2 (Exelixis, Inc., priority 2003, dated 2010).

The target of the assay is T1, p70S6K (Homo sapiens, UniProt P23443, T412E).
T1 construct: human p70S6 kinase domain residues 1-421, containing a T412E mutation; made in house
T1 sequence (P23443 1-421 T412E): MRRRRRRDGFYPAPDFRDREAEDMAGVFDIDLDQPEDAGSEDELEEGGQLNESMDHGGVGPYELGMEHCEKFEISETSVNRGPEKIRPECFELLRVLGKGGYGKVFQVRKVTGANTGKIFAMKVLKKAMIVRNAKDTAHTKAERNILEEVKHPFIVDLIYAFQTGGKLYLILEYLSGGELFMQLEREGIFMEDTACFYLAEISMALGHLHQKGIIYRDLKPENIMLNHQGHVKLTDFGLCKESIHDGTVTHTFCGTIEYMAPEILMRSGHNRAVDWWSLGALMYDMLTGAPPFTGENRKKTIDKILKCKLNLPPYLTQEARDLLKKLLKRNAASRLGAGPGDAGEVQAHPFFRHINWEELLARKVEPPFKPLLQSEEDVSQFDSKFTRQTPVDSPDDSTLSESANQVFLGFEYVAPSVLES
Put plainly: p70S6 Kinase Assay (Luciferase-Coupled Chemiluminescent Kinase assay, LCCA). Particulars: human p70S6 kinase domain residues 1-421, T412E; 5 μM ATP; read-out: p70S6K IC50. It is filed as biochemical. As for the experimental part: Kinase activity and compound inhibition are investigated using one or more of the three assay formats described below. The ATP concentrations for each assay are selected to be close to the Michaelis-Menten constant (KM) for each individual kinase. Dose-response experiments are performed at 10 different inhibitor concentrations in a 384-well plate format. […] Y=Min+(Max−Min)/(1+(X/IC50)^H) Equation (2) p70S6 Kinase Assay
Biochemical activity of p70S6 kinase was assessed using a Luciferase-Coupled Chemiluminescent Kinase assay (LCCA) format. Kinase activity was measured as the percent ATP remaining following the kinase reaction. Remaining ATP was detected by luciferase-luciferin-coupled chemiluminescence. […] The mixture is incubated at ambient temperature for 2 hours after which 20 μL luciferase-luciferin mix is added and the chemiluminescent signal read using a Wallac Victor^2 reader.
Consider `CSc1nc(N)nc(N[C@@H](CCCCN)C(=O)Nc2cccc(C(F)(F)F)c2)c1C#N` [Example 114, N^2-[2-amino-5-cyano-6-(methylthio)pyrimidin-4-yl]-N-[3-(trifluoromethyl)phenyl]-L-lysinamide], for which the IC50 (usually the concentration that gives 50% inhibition) was > 2000 nM.

As for `CCCOc1nc(N)nc(N[C@@H](C)C(=O)Nc2cccc(C(F)(F)F)c2)c1C#N` [Example 115, N^2-[2-amino-5-cyano-6-(propyloxy)pyrimidin-4-yl]-N-[3-(trifluoromethyl)phenyl]-L-alaninamide], the IC50 fell in the range of 50 to 500 nM.

Take `COCCNc1nc(N[C@@H](C)C(=O)Nc2cccc(C(F)(F)F)c2)c(C#N)c(SC)n1` [Example 116]: the IC50 is > 2000 nM.

As for `CSc1nc(N)nc(N[C@@H](CCCNC(=N)N)C(=O)Nc2cccc(C(F)(F)F)c2)c1C#N` [Example 117, N^2-[2-amino-5-cyano-6-(methylthio)pyrimidin-4-yl]-N-[3-(trifluoromethyl)phenyl]-L-argininamide], the IC50 was > 2000 nM.

Take `C[C@@H](C(=O)Nc1cccc(C(F)(F)F)c1)N(C)c1nc(N)nc([S+](C)[O-])c1C#N` (stereo partly drawn) [Example 118, N^2-[2-amino-5-cyano-6(methylsulfinyl)pyrimidin-4-yl]-N^2-methyl-N-[3-(trifluoromethyl)phenyl]-L-alaninamide]: the half-maximal inhibitory concentration (IC50) is > 2000 nM.

`COc1nc(N)nc(N(C)[C@@H](C)C(=O)Nc2cccc(C(F)(F)F)c2)c1C#N` [Example 119, N^2-[2-amino-5-cyano-6-(methyloxy)pyrimidin-4-yl]-N^2-methyl-N-[3-(trifluoromethyl)phenyl]-L-alaninamide]: the IC50 is > 2000 nM.

On to `CCCOc1nc(N)nc(N(C)[C@@H](C)C(=O)Nc2cccc(C(F)(F)F)c2)c1C#N` [Example 120, N^2-[2-amino-5-cyano-6-(propyloxy)pyrimidin-4-yl]-N^2-methyl-N-[3-(trifluoromethyl)phenyl]-L-alaninamide], for which the IC50 was > 2000 nM.

In the case of `CCOc1nc(N)nc(N(C)[C@@H](C)C(=O)Nc2cccc(C(F)(F)F)c2)c1C#N` [Example 121, N^2-[2-amino-5-cyano-6-(ethyloxy)pyrimidin-4-yl]-N^2-methyl-N-[3-(trifluoromethyl)phenyl]-L-alaninamide], the IC50 was > 2000 nM.

Take `CC(C)Oc1nc(N)nc(N[C@@H](C)C(=O)Nc2cccc(C(F)(F)F)c2)c1C#N` [Example 122, N^2-{2-amino-5-cyano-6-[(1-methylethyl)oxy]pyrimidin-4-yl}-N-[3-(trifluoromethyl)phenyl]-L-alaninamide]: the IC50 is > 2000 nM.

On to `CSc1nc(N)nc(N[C@@H](CCCNC(C)=O)C(=O)Nc2cccc(C(F)(F)F)c2)c1C#N` [Example 123, N^5-acetyl-N^2-[2-amino-5-cyano-6-(methylthio)pyrimidin-4-yl]-N-[3-(trifluoromethyl)phenyl]-L-ornithinamide], for which the IC50 is > 2000 nM.

In the case of `CSc1nc(N)nc(N[C@@H](C)C(=O)Nc2cccc(N)c2)c1C#N` [Example 124, N^2-[2-amino-5-cyano-6-(methylthio)pyrimidin-4-yl]-N-(3-aminophenyl)-L-alaninamide], the IC50 was > 2000 nM.

With `CSc1nc(N)nc(N[C@@H](C)C(=O)Nc2cc(C(=O)NCCN(C)C)cc(C(F)(F)F)c2)c1C#N` [Example 125, 3-({N-[2-amino-5-cyano-6-(methylthio)pyrimidin-4-yl]-L-alanyl}amino)-N-[2-(dimethylamino)ethyl]-5-(trifluoromethyl)benzamide], the IC50 was > 2000 nM.

With `COCCOC(=O)NCCC[C@H](Nc1nc(N)nc(SC)c1C#N)C(=O)Nc1cccc(C(F)(F)F)c1` [Example 126, 2-(methyloxy)ethyl ((4S)-4-{[2-amino-5-cyano-6-(methylthio)pyrimidin-4-yl]amino}-5-oxo-5-{[3-(trifluoromethyl)phenyl]amino}pentyl)carbamate], the IC50 was > 2000 nM.

As for `CCOc1nc(N)nc(NNC(=O)Nc2cccc(C(F)(F)F)c2)c1C#N` [Example 127, 2-[2-amino-5-cyano-6-(ethyloxy)pyrimidin-4-yl]-N-[3-(trifluoromethyl)phenyl]hydrazinecarboxamide], the IC50 was > 2000 nM.

As for `CCOc1nc(N)nc(N[C@@H](CCCNC(=O)OC(C)(C)C)C(=O)Nc2cccc(C(F)(F)F)c2)c1C#N` [Example 128, 1,1-dimethylethyl((4S)-4-{[2-amino-5-cyano-6-(ethyloxy)pyrimidin-4-yl]amino}-5-oxo-5-{[3-(trifluoromethyl)phenyl]amino}pentyl)carbamate], the IC50 was > 2000 nM.

Consider `CSc1nc(N)nc(N[C@@H](CCC(N)=O)C(=O)Nc2cccc(C(F)(F)F)c2)c1C#N` [Example 139], for which the IC50 is 50 to 500 nM.

As to `CSc1nc(N)nc(N[C@@H](CCCN2CCOCC2)C(=O)Nc2cccc(C(F)(F)F)c2)c1C#N` [Example 143, N~2~-[2-amino-5-cyano-6-(methylthio)pyrimidin-4-yl]-5-morpholin-4-yl-N-[3-(trifluoromethyl)phenyl]-L-norvalinamide], the IC50 was 50 to 500 nM.

For the compound `COCCNCCC[C@H](Nc1nc(N)nc(SC)c1C#N)C(=O)Nc1cccc(C(F)(F)F)c1` [Example 144, N~2~-[2-amino-5-cyano-6-(methylthio)pyrimidin-4-yl]-N~5~-[2-(methyloxy)ethyl]-N-[3-(trifluoromethyl)phenyl]-L-omithinamide], the IC50 was 500 to 2000 nM.

As for `CSc1nc(N)nc(N[C@@H](C)C(=O)Nc2cc(C(=O)O)cc(C(F)(F)F)c2)c1C#N` [Example 145], the IC50 is 500 to 2000 nM.

With `COC(=O)CC[C@H](Nc1nc(N)nc(SC)c1C#N)C(=O)Nc1cccc(C(F)(F)F)c1` [Example 146, methyl N~2~-[2-amino-5-cyano-6-(methylthio0pyrimidin-4-yl]-N-'-(trifluoromethyl)phenyl]-L-alpha-glutaminate], the IC50 fell in the range of 500 to 2000 nM.

For the compound `CSc1nc(N)nc(N[C@@H](CCC(=O)O)C(=O)Nc2cccc(C(F)(F)F)c2)c1C#N` [Example 149, N~2~-[2-amino-5-cyano-6-(methylthio)pyrimidin-4-yl]-N-[3-(trifluoromethyl)phenyl]-Lalpha-glutamine], the IC50 was 500 to 2000 nM.

`CCOc1nc(N)nc(N[C@@H](CO)C(=O)Nc2cccc(C(F)(F)F)c2)c1C#N` [Example 150, N~2~-[2-amino-5-cyano-6-(ethyloxy)pyrimidin-4-yl]-N-[3-(trifluoromethyl)phenyl]-L-serinamide]: the IC50 fell in the range of 500 to 2000 nM.

As for `CCOc1nc(N)nc(N[C@@H](COCc2ccccc2)C(=O)Nc2cccc(C(F)(F)F)c2)c1C#N` [Example 151, N~2~-[2-amino-5-cyano-6-(ethyloxy)pyrimidin-4-yl]-O-(phenylmethyl)-N-[3-(trifluoromethyl)phenyl]-L-serinamide], the IC50 is > 2000 nM.

Consider `CCOc1nc(N)nc(N[C@@H](CCCNC(=N)N)C(=O)Nc2cccc(C(F)(F)F)c2)c1C#N` [Example 152, N~2~-[2-amino-5-cyano-6-(ethyloxy)pyrimidin-4-yl]-N-[3-(trifluoromethyl)phenyl]-L-argininamide], for which the IC50 is > 2000 nM.

`CSc1nc(N)nc(N(C)[C@@H](CCCCNC(=O)OCc2ccccc2)C(=O)Nc2cccc(C(F)(F)F)c2)c1C#N` [Example 153, N~2~-[2-amino-5-cyano-6-(methylthio)pyrimidin-4-yl]-N~2~-methyl-N~6~-{[(phenylmethyl)oxy]carbonyl}-N-[3-(trifluoromethyl)phenyl]-L-lysinamide]: the IC50 is > 2000 nM.
